Results as given in patent US6750248B2, “Methods for preparing an estrogenic preparation and isolated estrogenic compounds from a plant and uses thereof” (National University of Singapore, priority 2001, dated 2004).
Entries after “also recorded” stand apart in the source; their conditions may differ. Like-named read-outs stand apart in the source and are kept apart here.

Assays:
[1] = mice, intra-peritoneal 32 mg/kg/day for 14 days; cited from earlier work
mouse heart allograft = details: cited from earlier work
[2] = target: T1, human estrogen receptor ER-beta (Homo sapiens, UniProt Q92731); assay: ER-beta MMTV-ERE-LUC luciferase reporter gene assay in transiently co-transfected Hela cells; type: cell-based; details: for ER-alpha versus ER-beta selectivity (in words): compared with ER-alpha
T1 construct: expressed in transfected cells; host or cells: Hela cells, transient co-transfection with lipofectamine
Method: (§1) To assay estrogen receptor agonist activity, Hela cells were grown in 24-well microtiter plates and then transiently co-transfected with two plasmids using lipofectamine. The first plasmid comprised DNA encoding human estrogen receptor (either ER-alpha or ER-beta), and the second plasmid comprised an estrogen-driven reporter system comprising: a luciferase reporter gene (LUC) whose transcription is under the control of upstream regulatory elements comprising 4 copies of the vitelogenin estrogen response element (ERE) cloned into the mouse mammary tumor virus (MMTV) promoter (the full name for the reporter system being “MMTV-ERE-LUC”). Cells were exposed to herbal extracts in RPMI 1640 medium, supplemented with 10% charcoal-treated fetal calf serum, 2 mM L-glutamine, 0.1 mM non-essential amino acids and 1 mM sodium pyruvate for 42-48 hours at 37° C. in a 5% carbon dioxide incubator. […] Replicate wells exposed to the solvent in which herbal extracts were dissolved (i.e. ethanol or methanol) were used as negative controls. After the 42-48 hr incubation period, cells were rinsed with phosphate buffered saline(PBS), lysis buffer (Promega Corp) was added, and cell lysates collected for measurement of luciferase activity with a luminometer. […] All data points are in triplicate.

[3] = target: T2, human estrogen receptor ER-alpha (Homo sapiens, UniProt P03372); assay: ER-alpha MMTV-ERE-LUC luciferase reporter gene assay in transiently co-transfected Hela cells; type: cell-based
T2 construct: expressed in transfected cells; host or cells: Hela cells, transient co-transfection with lipofectamine
T2 sequence (P03372 1-595): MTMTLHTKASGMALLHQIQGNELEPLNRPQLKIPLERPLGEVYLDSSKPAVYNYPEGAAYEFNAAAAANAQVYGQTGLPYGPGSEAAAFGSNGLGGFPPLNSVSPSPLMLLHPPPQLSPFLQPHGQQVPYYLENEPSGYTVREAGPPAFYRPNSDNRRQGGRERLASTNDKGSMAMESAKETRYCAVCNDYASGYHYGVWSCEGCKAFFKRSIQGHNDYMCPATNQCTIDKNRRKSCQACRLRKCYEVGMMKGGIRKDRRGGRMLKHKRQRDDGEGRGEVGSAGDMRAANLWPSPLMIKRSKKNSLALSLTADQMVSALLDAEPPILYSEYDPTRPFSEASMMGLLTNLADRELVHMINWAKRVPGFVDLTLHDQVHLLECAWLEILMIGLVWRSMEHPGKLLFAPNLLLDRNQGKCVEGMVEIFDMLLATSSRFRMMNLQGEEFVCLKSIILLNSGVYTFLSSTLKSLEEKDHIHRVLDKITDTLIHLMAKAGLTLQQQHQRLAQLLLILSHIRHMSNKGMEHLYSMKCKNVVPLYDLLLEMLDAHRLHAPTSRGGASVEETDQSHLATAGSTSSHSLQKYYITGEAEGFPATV
Method: as §1

[4] = test system: human estrogen receptor (either ER-alpha or ER-beta); assay: Estrogen receptor bioassay as in Example 1, ER subtype not stated; type: cell-based; details: under the conditions described herein
Method: as §1

estrogen receptors = details: cited from earlier work

T1 sequence (Q92731 whole entry): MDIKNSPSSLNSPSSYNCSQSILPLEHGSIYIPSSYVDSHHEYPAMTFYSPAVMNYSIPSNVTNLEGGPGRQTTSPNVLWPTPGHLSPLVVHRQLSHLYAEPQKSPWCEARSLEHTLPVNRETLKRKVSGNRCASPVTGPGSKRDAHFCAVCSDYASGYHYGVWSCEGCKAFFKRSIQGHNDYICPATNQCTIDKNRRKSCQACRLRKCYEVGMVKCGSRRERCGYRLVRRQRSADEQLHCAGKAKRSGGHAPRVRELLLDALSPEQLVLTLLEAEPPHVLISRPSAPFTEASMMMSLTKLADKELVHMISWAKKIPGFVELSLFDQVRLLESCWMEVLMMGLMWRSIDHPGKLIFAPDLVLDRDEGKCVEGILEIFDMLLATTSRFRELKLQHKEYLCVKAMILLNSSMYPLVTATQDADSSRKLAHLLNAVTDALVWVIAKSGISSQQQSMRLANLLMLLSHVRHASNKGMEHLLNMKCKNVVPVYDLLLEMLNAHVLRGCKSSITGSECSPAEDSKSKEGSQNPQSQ

ER-beta agonist activity (in words) [2]	Estrogenic activity (fold increased over vehicle), ER-beta ([2]; dose 0.05 μg/ml) [fold]	Estrogenic activity (fold increased over vehicle), ER-beta ([2]; dose 0.5 μg/ml) [fold]	Estrogenic activity (fold increased over vehicle), ER-beta ([2]; dose 5 μg/ml) [fold]	ER-alpha agonist activity (in words) [3]	Estrogenic activity (fold increased over vehicle), ER-alpha ([3]; dose 0.05 μg/ml) [fold]	Estrogenic activity (fold increased over vehicle), ER-alpha ([3]; dose 0.5 μg/ml) [fold]	Estrogenic activity (fold increased over vehicle), ER-alpha ([3]; dose 5 μg/ml) [fold]	SMILES	Relative potency of estrogenic activity compared to genistein (estrogen receptors) [%]	also measured
–	–	–	–	–	–	–	–	COc1ccc(-c2oc3c(CC=C(C)C)c(O)cc(O)c3c(=O)c2O[C@@H]2O[C@@H](C)[C@H](O)[C@@H](O)[C@H]2O)cc1 [Baihuoside I]	–	Side effects [1]: no side effects; Mouse heart allograft survival (mouse heart allograft): effective at prolonging mouse heart allograft survival
can activate both ER-alpha and ER-beta	2.598	18.763	13.289	can activate both ER-alpha and ER-beta	4.940	9.089	11.618	CC(C)=CCc1cc(-c2cc(=O)c3c(O)cc(O)cc3o2)ccc1O [Compound I, yinyanghuo D]	–	ER-alpha versus ER-beta selectivity (in words) ([2]; listed as AF6): activate both ER-alpha and ER-beta equally; also recorded: estrogen receptor agonist activity on both ER-alpha and ER-beta; ER-beta agonist activity (in words) ([2]; listed as AF6): strong ER-alpha and ER-beta activity; ER-alpha agonist activity (in words) ([3]; listed as AF6): strong ER-alpha and ER-beta activity
activated ER-beta strongly	1.514	6.093	23.132	very weak ER alpha activity	1.031	2.357	2.694	CC(C)=CCc1cc(-c2cc(=O)c3c(O)cc(O)cc3o2)cc2c1OC(C(C)(C)O)C2O (stereo not drawn) [Compound III]	–	Concentration with ER-beta activity equivalent to estradiol at 1 nM [2]: 15 ng/mL; Factor by which ER-beta is activated more strongly than ER-alpha ([2]; at 5 μg/ml): about nine-fold; ER-alpha versus ER-beta selectivity (in words) [2]: activates ER-beta more strongly than it activates ER-alpha; also recorded: shows specificity for ER-beta; ER-alpha versus ER-beta selectivity (in words) ([2]; listed as AF1): stronger than that observed for ER-alpha estrogen receptors; ER-beta stimulatory activity compared with estradiol (in words) ([2]; dose-dependent): stronger than that observed for estradiol; ER-alpha activity as % of that of estradiol [3]: 26%
–	–	–	–	–	–	–	–	C=C(C)C(O)Cc1cc(-c2cc(=O)c3c(O)cc(O)cc3o2)cc(CC(O)C(=C)C)c1O (stereo not drawn) [Compound II]	–	Estrogenic activity (in words) [4]: no detectable estrogenic activity
–	–	–	–	–	–	–	–	O=c1cc(-c2ccc(O)c(O)c2)oc2cc(O)cc(O)c12 [Luteolin]	58	–
–	–	–	–	–	–	–	–	O=c1c(O)c(-c2ccc(O)c(O)c2)oc2cc(O)cc(O)c12 [quercetin]	10	–
